“And” between values parts separate entries of the source, which are not always exact repeats. Identical values can stand only once.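 Exposure lasted 48 hours, with cells grown in 96-well plates and compounds tested at five concentrations. Abbreviation: GI50, concentration required for 50% inhibition of growth. TGI denotes the concentration required for complete inhibition of growth.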
Key:
Test in all cases: DTP human tumour cell line panel, 48 h
BT-549 breast = test system: BT-549 breast
MCF7 breast = test system: MCF7 breast
MDA-MB-231 breast = test system: MDA-MB-231 breast
MDA-MB-435 = test system: MDA-MB-435
NCI/ADR-RES ovarian = test system: NCI/ADR-RES ovarian
T-47D breast = test system: T-47D breast

SMILES	GI50 (BT-549 breast)	TGI (BT-549 breast)	GI50 (MCF7 breast)	TGI (MCF7 breast)	GI50 (MDA-MB-231 breast)	TGI (MDA-MB-231 breast)	GI50 (MDA-MB-435)	TGI (MDA-MB-435)	GI50 (NCI/ADR-RES ovarian)	TGI (NCI/ADR-RES ovarian)	GI50 (T-47D breast)	TGI (T-47D breast)
CCCc1cc(=O)oc2c(C(=O)CC(C)C)c(O)c(CC=C(C)C)c(O)c12	7.85 µM	42.4 µM	7.83 µM	> 50 µM	9.81 µM	24.7 µM	11.8 µM	43.1 µM	8.6 µM	48.1 µM	9.33 µM	40.3 µM
CN(C)CC(C(=O)c1ccccc1)c1ccccc1 (stereo not drawn)	1.87 µM	4.39 µM	1.15 µM	3.35 µM	2.5 µM	10.1 µM	1.9 µM	7.38 µM	2.59 µM	8.37 µM	2.03 µM	5.73 µM
O=C1NC(=NCC(CO)c2ccccc2)S/C1=C\c1ccc2ncccc2c1 (stereo not drawn)	13.3 µM	> 25 µM	12.4 µM	> 25 µM	> 25 µM	> 25 µM	11.3 µM	> 25 µM	> 25 µM	> 25 µM	25 µM	> 25 µM
Nc1ccc2c(c1)C(=O)c1ccc(F)cc1-2	–	> 100 µM	–	> 100 µM	–	> 100 µM	–	> 100 µM	–	> 100 µM	–	> 100 µM
CSC1=Nc2c(c(C)c(-c3ccccc3)n2COC(CO)CO)C2=NC(=O)C(C)N12 (stereo not drawn)	> 100 µM	> 100 µM	> 100 µM	> 100 µM	> 100 µM	> 100 µM	> 100 µM	> 100 µM	> 100 µM	> 100 µM	> 100 µM	> 100 µM
COc1cc(/C=C/C(=O)C(=Cc2ccc(F)c(F)c2)C(=O)/C=C/c2ccc(O)c(OC)c2)ccc1O	2.68 µM	7.13 µM	2.57 µM	11 µM	3.48 µM	16.7 µM	2.93 µM	10.2 µM	4.06 µM	> 100 µM	2.31 µM	7.7 µM
Clc1ccc(-c2nc3c(-c4ccc(Cl)cc4)nc(-c4ccccc4)cn3c2-c2ccc(Cl)cc2)cc1	14.2 µM	> 50 µM	> 50 µM	> 50 µM	27.9 µM	> 50 µM	> 50 µM	> 50 µM	> 50 µM	> 50 µM	> 50 µM	> 50 µM
COc1cc(CNC(=O)/C=C/C=C/c2ccc3c(c2)OCO3)ccc1OCc1cn(-c2ccc(Cl)c(Cl)c2)nn1	1.83 µM	4.46 µM	0.889 µM	3.23 µM	1.95 µM	5 µM	2 µM	4.75 µM	1.42 µM	4.93 µM	1.17 µM	3.49 µM
CC/C(=N\Nc1nc2ccccc2n1C)c1ccccn1	0.243 µM	12.8 µM	0.0179 µM	13.9 µM	0.14 µM	11.8 µM	0.224 µM	12.7 µM	0.0382 µM	4.9 µM	< 0.01 µM	4.59 µM
Cc1ccc(/C=C(\C#N)n2nnc3cc(Cl)c(Cl)cc32)cc1	1.81 µM	4.59 µM	1.88 µM	> 100 µM	2.7 µM	17.2 µM	0.909 µM	6.8 µM	2.22 µM	7.61 µM	–	–
O=C(CCCn1c2c(sc3ncccc32)c(=O)n2nnc(-c3ccccc3)c12)NCCc1cnc[nH]1	–	–	18 µM	> 100 µM	17.8 µM	34.6 µM	0.489 µM	20.5 µM	34.1 µM	> 100 µM	1.87 µM	21.6 µM
O=C1Cc2cc(CCn3ccnc3)c(Cl)cc2N1	9.51 µM	> 100 µM	4.12 µM	> 100 µM	5.18 µM	> 100 µM	3.12 µM	15.2 µM	5.46 µM	> 100 µM	75.6 µM	> 100 µM
CCN1CCC[C@H]1c1cc(O)c2c(c1OC)C[C@H]1C[C@H]3[C@H](N)C(=O)C(C(N)=O)=C(O)[C@@]3(O)C(=O)C1=C2O	0.0719 µM	1.28 µM	0.241 µM	6.1 µM	0.0431 µM	0.717 µM	0.0917 µM	2.34 µM	0.435 µM	> 61.5 µM	0.0448 µM	1.47 µM
CCCNc1nc(N(C)O)nc(N(C)O)n1	3.34 µM	> 29.9 µM	2.44 µM	> 100 µM	5.31 µM	> 100 µM	4.95 µM	> 100 µM	2.15 µM	> 100 µM	3.9 µM	> 100 µM
CCCCCCN(CCCCCC)CCCNc1nccc2ccccc12	1.79 µM	3.47 µM	1.56 µM	3.46 µM	1.44 µM	2.91 µM	1.57 µM	3.06 µM	1.6 µM	3.37 µM	–	–
O=S(=O)(NCCNc1nccc(-c2c(-c3cccc(O)c3)nc3sccn23)n1)c1ccc(F)cc1	5.32 µM	30 µM	2.39 µM	14.9 µM	4.88 µM	44.8 µM	0.939 µM	11.6 µM	53 µM	> 100 µM	6.54 µM	25 µM
Cc1cccc(CN(C)c2ccc(CO)c(Cl)c2)c1	15.8 µM	42.9 µM	1.54 µM	21.3 µM	21.9 µM	> 86.2 µM	17.2 µM	49.3 µM	17.2 µM	59.3 µM	1.04 µM	7.66 µM
CC(=O)Nc1ccc2nncnc2c1	–	> 100 µM	–	> 100 µM	–	> 100 µM	–	> 100 µM	–	> 100 µM	–	> 100 µM
Fc1ccc(-c2nc(-c3nc4ccc(Cl)cc4[nH]3)cc3c2[nH]c2ccccc23)cc1	4.62 µM	18.7 µM	3.27 µM	16.6 µM	2.88 µM	13.6 µM	3.59 µM	14.3 µM	3.42 µM	28.3 µM	2.68 µM	20.9 µM
COC(=O)/C(C#N)=C\N1CCN(C(=O)c2ccco2)C1=S	4.16 µM	13.6 µM	–	–	4.17 µM	15.8 µM	6.82 µM	46.5 µM	24 µM	58.4 µM	4.63 µM	67.1 µM

SMILES	GI50 (BT-549 breast)	TGI (BT-549 breast)	GI50 (MCF7 breast)	TGI (MCF7 breast)	GI50 (MDA-MB-231 breast)	TGI (MDA-MB-231 breast)	GI50 (MDA-MB-435)	TGI (MDA-MB-435)	GI50 (NCI/ADR-RES ovarian)	TGI (NCI/ADR-RES ovarian)	GI50 (T-47D breast)	TGI (T-47D breast)
COc1ccc2c(c1)C(=O)c1c-2n(CCCN=[N+]=[N-])c(=O)c2ccccc12	89.9 µM	> 100 µM	1.5 µM	> 100 µM	> 100 µM	> 100 µM	65.2 µM	> 100 µM	91.2 µM	> 100 µM	25.9 µM	> 100 µM
Oc1nc(NCCc2ccccc2)sc1/C=C1\C=Nc2ncccc21	1.23 µM and 1.35 µM	3.26 µM and 3.34 µM	2.79 µM and 2.95 µM	11.3 µM and 11.5 µM	3.05 µM and 3.74 µM	9.27 µM and 21.6 µM	2.41 µM and 2.83 µM	8.54 µM and 12.2 µM	12.2 µM and 8.3 µM	50 µM and > 100 µM	2.15 µM and 3.22 µM	9.09 µM and 8.2 µM
CC(C)=CC/C=C(/C)[C@H]1CC[C@]2(C)[C@@H]1CC[C@@H]1[C@@]3(C)CCC(=O)NC(C)(C)[C@@H]3CC[C@]12C	18.7 µM	43.5 µM	18.8 µM	62.8 µM	20.5 µM	44.3 µM	20.7 µM	48.9 µM	22.2 µM	55.6 µM	19.8 µM	91 µM
CCOc1ccc(Cc2nccc3cc(OCC)c(OCC)cc23)cc1OCC	5.16 µM	19.1 µM	9.94 µM	23.8 µM	4.02 µM	25.9 µM	5.78 µM	23.1 µM	4.87 µM	39.6 µM	1.47 µM	15 µM
COc1cc2c(cc1OC)C(CCc1ccc(Cl)cc1)N(C)CC2 (stereo not drawn)	33.5 µM	> 100 µM	21.2 µM	47 µM	16.3 µM	39.1 µM	16.3 µM	41.2 µM	17.7 µM	39.4 µM	23.8 µM	76.8 µM
CC1=C(N2CC2)C(=O)C(CO)=C(N2CC2)C1=O	–	1.95 µM	0.00487 µM	0.0938 µM and 0.0967 µM	0.14 µM	–	0.0386 µM and 0.0393 µM	0.169 µM and 0.151 µM	0.0161 µM	0.0671 µM and 0.0182 µM	–	0.529 µM
Cn1cc(-c2csc(-c3c[nH]c4ncccc34)n2)c2cc(Br)cnc21	20.5 µM	> 100 µM	6.77 µM	> 100 µM	3.02 µM	> 100 µM	3.17 µM	32.8 µM	3.89 µM	> 100 µM	1.8 µM	> 100 µM
Nc1nc(-c2ccccc2)c(-c2ccccc2)c(-c2nc(N)nc(-c3ccccc3)c2-c2ccccc2)n1	–	> 100 µM	–	> 100 µM	–	> 100 µM	–	> 100 µM	–	> 100 µM	–	> 100 µM
COC1=C(OC)C(=O)C(/C=C(\C)C(=O)O)=C(C)C1=O	> 100 µM	> 100 µM	> 100 µM	> 100 µM	> 100 µM	> 100 µM	> 100 µM	> 100 µM	> 100 µM	> 100 µM	> 100 µM	> 100 µM
c1cncc(CNc2ccccc2-c2nnc(Nc3ccc4c(c3)OCO4)o2)c1	0.604 µM	> 100 µM	0.039 µM	> 100 µM	0.343 µM	> 100 µM	–	–	0.0291 µM	0.142 µM	0.22 µM	> 100 µM
C=C1CC[C@@H]2C(C)(C)[C@@H](O)CC[C@@]2(C)[C@@H]1COc1ccc2ccc(=O)oc2c1	6.65 µM	20.1 µM	8.02 µM	24.7 µM	15.4 µM	31.8 µM	13.6 µM	27.6 µM	10.5 µM	30.8 µM	5.81 µM	32.5 µM
O=C(Oc1cccnc1)c1ccccc1Nc1ccnc(C(F)(F)F)c1	0.104 µM	2.18 µM	0.0865 µM	> 45.5 µM	0.233 µM	> 62.2 µM	–	–	0.186 µM	> 100 µM	23 µM	51.5 µM
N#Cc1ccc(Oc2nccc(-c3c(-c4ccc(F)cc4)ncn3C3CCNCC3)n2)cc1	24.9 µM	> 25 µM	10.7 µM	> 25 µM	> 22.3 µM	> 25 µM	> 15.1 µM	> 25 µM	> 25 µM	> 25 µM	> 25 µM	> 25 µM
CCN1CCN(CCOc2ccc(CNc3ccc4nc(CCC5CCCCC5)[nH]c4c3)cc2)CC1	1.58 µM	3.04 µM	1.8 µM	5.84 µM	1.6 µM	3.11 µM	1.78 µM	3.73 µM	3.11 µM	11.2 µM	1.93 µM	5.41 µM
COc1cccc(Nc2nc(NNC(=O)Cc3ccccc3)nc(NNC(=O)c3ccncc3)n2)c1	–	–	> 100 µM	> 100 µM	> 100 µM	> 100 µM	–	> 100 µM	> 100 µM	> 100 µM	–	–
C=CCN1C(=O)/C(=c2\sc3n(c2=O)C2C(NN=3)N(CC)C(=O)N2CC)c2ccccc21 (stereo not drawn)	1.65 µM	> 75.6 µM	0.448 µM	> 100 µM	1.23 µM	7.96 µM	0.207 µM	0.491 µM	0.434 µM	> 40.5 µM	0.438 µM	> 100 µM
COC(=O)[C@]12CC[C@@H](C)[C@H](C)[C@@H]1C1=CC[C@@H]3[C@@]4(C)C[C@@H](OC(=O)c5ccco5)[C@H](O)[C@@](C)(CO)[C@@H]4[C@H](O)C[C@@]3(C)[C@]1(C)CC2	2.41 µM	5.21 µM	1.8 µM	3.71 µM	2.23 µM	4.8 µM	2.29 µM	5.75 µM	2.59 µM	7.12 µM	3.13 µM	9.17 µM
O=C(Nc1cccc(Cl)c1)Nc1cccc(Cl)c1	> 100 µM	> 100 µM	5.79 µM	> 100 µM	18.2 µM	> 100 µM	–	–	–	–	2.28 µM	> 100 µM
COc1ccc(Nc2c3ccccc3nc3c2c2ccccc2n3C)cc1	11 µM	43.4 µM	28.3 µM	86.3 µM	34.8 µM	> 100 µM	30.5 µM	> 100 µM	34 µM	> 100 µM	–	–
COc1ccc(CN2c3ccccc3Sc3ccccc32)cc1F	1.34 µM	> 23.4 µM	0.464 µM	> 100 µM	0.917 µM	> 88.1 µM	0.198 µM	0.469 µM	0.322 µM	–	–	–
